Experimental data as given in US9587005B2 (priority 2010, dated 2017).
Like-named read-outs stand apart in the source and are kept apart here. *1 amine or outer side, *2 acyl side, *3 side chain or, on linkers, in order; H or OH if unused. Where a SMILES comes first, the peptide text is derived from it. Side-chain parts run from the residue outwards. [ ]: non-standard residue; d: D form. The star is where a group is joined. X5 = CCCCCCCCCCCCCCCC(=O)N[C@@H](CCC(=O)NCCCC[C@H](NC(=O)CC[C@H](NC(=O)CCCCCCCCCCCCCCC)C(=O)O)C(=O)*)C(=O)O; γGlu = O=C(O)[C@H](CCC(=O)[*:2])N[*:1]; Palmitoyl = CCCCCCCCCCCCCCCC(=O)*; Aib = CC(C)(N)C(=O)O

Legend:
Type in all cases: cell-based
GLP-1 receptor = target: T1, GLP-1 receptor (Homo sapiens, UniProt P43220); test: cAMP induction, firefly luciferase reporter assay in HEK293 cells co-transfected with GLP-1 receptor
T1 construct: expressed in transfected cells; host or cells: HEK293
T1 sequence (P43220 24-463): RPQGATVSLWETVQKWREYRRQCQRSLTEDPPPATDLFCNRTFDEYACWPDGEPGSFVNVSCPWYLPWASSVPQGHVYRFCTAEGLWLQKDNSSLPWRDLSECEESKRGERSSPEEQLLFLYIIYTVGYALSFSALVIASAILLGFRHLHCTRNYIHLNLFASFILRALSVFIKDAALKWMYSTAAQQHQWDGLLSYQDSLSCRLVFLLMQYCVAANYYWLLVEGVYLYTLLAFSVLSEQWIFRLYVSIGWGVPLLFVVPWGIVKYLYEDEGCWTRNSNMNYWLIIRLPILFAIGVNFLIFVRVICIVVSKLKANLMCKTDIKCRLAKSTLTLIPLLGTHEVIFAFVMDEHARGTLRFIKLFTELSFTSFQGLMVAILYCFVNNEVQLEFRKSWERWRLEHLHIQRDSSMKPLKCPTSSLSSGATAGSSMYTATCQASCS
Excerpt: (§1) This example describes an exemplary method of testing the biological activity of the peptides of the present disclosures, which method involves assaying cAMP synthesis.

glucagon receptor = target: T2, glucagon receptor (Homo sapiens, UniProt P47871); test: cAMP induction, firefly luciferase reporter assay in HEK293 cells co-transfected with glucagon receptor
T2 construct: expressed in transfected cells; host or cells: HEK293
T2 sequence (P47871 26-477): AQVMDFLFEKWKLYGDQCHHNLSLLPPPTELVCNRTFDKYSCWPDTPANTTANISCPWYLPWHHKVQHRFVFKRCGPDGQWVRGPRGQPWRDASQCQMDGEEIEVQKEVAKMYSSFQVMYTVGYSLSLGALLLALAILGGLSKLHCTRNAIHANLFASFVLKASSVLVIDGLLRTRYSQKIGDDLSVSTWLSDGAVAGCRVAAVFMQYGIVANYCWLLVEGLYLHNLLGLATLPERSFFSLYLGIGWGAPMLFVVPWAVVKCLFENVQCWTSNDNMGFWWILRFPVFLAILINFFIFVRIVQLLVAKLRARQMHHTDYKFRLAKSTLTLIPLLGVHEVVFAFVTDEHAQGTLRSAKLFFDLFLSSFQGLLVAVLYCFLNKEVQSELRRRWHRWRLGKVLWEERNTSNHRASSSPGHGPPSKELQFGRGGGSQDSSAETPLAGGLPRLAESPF
Excerpt: as §1

GIP receptor = target: T3, GIP receptor (Homo sapiens, UniProt P48546); test: cAMP induction, firefly luciferase reporter assay in HEK293 cells co-transfected with GIP receptor
T3 sequence (P48546 22-466): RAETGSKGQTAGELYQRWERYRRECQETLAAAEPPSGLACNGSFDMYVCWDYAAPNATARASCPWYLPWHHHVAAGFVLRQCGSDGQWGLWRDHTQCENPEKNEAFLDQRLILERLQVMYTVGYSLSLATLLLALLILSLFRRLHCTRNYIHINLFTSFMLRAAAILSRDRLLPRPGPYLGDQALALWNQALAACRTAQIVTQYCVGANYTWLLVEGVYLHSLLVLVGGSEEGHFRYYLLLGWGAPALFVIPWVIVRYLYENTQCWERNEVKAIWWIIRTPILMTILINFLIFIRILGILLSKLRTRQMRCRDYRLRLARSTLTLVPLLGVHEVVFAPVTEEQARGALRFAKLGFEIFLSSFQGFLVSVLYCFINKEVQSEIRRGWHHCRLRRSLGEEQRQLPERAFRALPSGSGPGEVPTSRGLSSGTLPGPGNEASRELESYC

[1] = GLP-1 Receptor EC50, Table 10, Example 16
[2] = Glucagon Receptor EC50, Table 10, Example 16
[3] = Table 10, Example 16, read-out: GIP-1 Receptor EC50
[4] = Table 12, Example 19, read-out: EC50 (cAMP, nmole) GLPR
[5] = Table 12, Example 19, read-out: EC50 (cAMP, nmole) GCGR
[6] = EC50 (cAMP, nmole) GIPR, Table 12, Example 19

Row | Compound | EC50 (GLP-1 receptor; [1]) [nM] | EC50 (glucagon receptor; [2]) [nM] | EC50 (GIP receptor; [3]) [nM] | EC50 (GLP-1 receptor; [4]) [nM] | EC50 (glucagon receptor; [5]) [nM] | EC50 (GIP receptor; [6]) [nM] | other results
1 | CCCCCCCCCCCCCCCC(=O)N[C@@H](CCC(=O)NCCCC[C@H](NC(=O)[C@H](CCCCN)NC(=O)[C@H](CO)NC(=O)[C@H](Cc1ccc(O)cc1)NC(=O)[C@H](CC(=O)O)NC(=O)[C@H](CO)NC(=O)[C@@H](NC(=O)[C@H](Cc1ccccc1)NC(=O)[C@@H](NC(=O)CNC(=O)[C@H](CCC(N)=O)NC(=O)C(C)(C)NC(=O)[C@@H](N)Cc1c[nH]cn1)[C@@H](C)O)[C@@H](C)O)C(=O)N[C@@H](CC(C)C)C(=O)N[C@@H](CC(=O)O)C(=O)N[C@@H](CCC(=O)O)C(=O)N[C@@H](CCCNC(=N)N)C(=O)N[C@@H](C)C(=O)N[C@@H](C)C(=O)N[C@@H](CCC(N)=O)C(=O)N[C@@H](CC(=O)O)C(=O)N[C@@H](Cc1ccccc1)C(=O)N[C@H](C(=O)N[C@@H](CCC(N)=O)C(=O)N[C@@H](Cc1c[nH]c2ccccc12)C(=O)N[C@@H](CC(C)C)C(=O)N[C@@H](CC(C)C)C(=O)N[C@@H](CC(=O)O)C(=O)NCC(=O)NCC(=O)N1CCC[C@H]1C(=O)N[C@@H](CO)C(=O)N[C@@H](CO)C(=O)NCC(=O)N[C@@H](C)C(=O)N1CCC[C@H]1C(=O)N1CCC[C@H]1C(=O)N1CCC[C@H]1C(=O)N[C@@H](CO)C(N)=O)C(C)C)C(=O)O [SEQ ID NO: 151] (H-H[Aib]QGTFTSDYSKK([γGlu-Palmitoyl])LDERAAQDFVQWLLDGGPSSGAPPPS-NH2) | 0.004 | 0.008 | 0.309 |  |  |  | 
2 | CCCCCCCCCCCCCCCC(=O)N[C@@H](CCC(=O)NCCCC[C@H](NC(=O)[C@H](CC(=O)O)NC(=O)[C@H](CC(C)C)NC(=O)[C@H](Cc1ccc(O)cc1)NC(=O)[C@H](CCCCN)NC(=O)[C@H](CO)NC(=O)[C@H](Cc1ccc(O)cc1)NC(=O)[C@H](CC(=O)O)NC(=O)[C@H](CO)NC(=O)[C@@H](NC(=O)[C@H](Cc1ccccc1)NC(=O)[C@@H](NC(=O)CNC(=O)[C@H](CCC(N)=O)NC(=O)C(C)(C)NC(=O)[C@@H](N)Cc1c[nH]cn1)[C@@H](C)O)[C@@H](C)O)C(=O)N[C@@H](CCCNC(=N)N)C(=O)N[C@@H](C)C(=O)N[C@@H](C)C(=O)N[C@@H](CCC(N)=O)C(=O)N[C@@H](CC(=O)O)C(=O)N[C@@H](Cc1ccccc1)C(=O)N[C@H](C(=O)N[C@@H](CCC(N)=O)C(=O)N[C@@H](Cc1c[nH]c2ccccc12)C(=O)N[C@@H](CC(C)C)C(=O)N[C@@H](CC(C)C)C(=O)N[C@@H](CC(=O)O)C(=O)NCC(=O)NCC(=O)N1CCC[C@H]1C(=O)N[C@@H](CO)C(=O)N[C@@H](CO)C(=O)NCC(=O)N[C@@H](C)C(=O)N1CCC[C@H]1C(=O)N1CCC[C@H]1C(=O)N1CCC[C@H]1C(=O)N[C@@H](CO)C(N)=O)C(C)C)C(=O)O [SEQ ID NO: 153] (H-H[Aib]QGTFTSDYSKYLDK([γGlu-Palmitoyl])RAAQDFVQWLLDGGPSSGAPPPS-NH2; N-terminus assumed) | 0.007 | 0.012 | 0.276 |  |  |  | 
3 | CCCCCCCCCCCCCCCC(=O)N[C@@H](CCC(=O)NCCCC[C@H](NC(=O)CC[C@H](NC(=O)CCCCCCCCCCCCCCC)C(=O)O)C(=O)NCCCC[C@H](NC(=O)[C@H](CC(=O)O)NC(=O)[C@H](CO)NC(=O)[C@@H](NC(=O)[C@H](Cc1ccccc1)NC(=O)[C@@H](NC(=O)CNC(=O)[C@H](CCC(N)=O)NC(=O)C(C)(C)NC(=O)[C@@H](N)Cc1c[nH]cn1)[C@@H](C)O)[C@@H](C)O)C(=O)N[C@@H](CO)C(=O)N[C@@H](CCCCN)C(=O)N[C@@H](Cc1ccc(O)cc1)C(=O)N[C@@H](CC(C)C)C(=O)N[C@@H](CC(=O)O)C(=O)N[C@@H](CCC(=O)O)C(=O)N[C@@H](CCCNC(=N)N)C(=O)N[C@@H](C)C(=O)N[C@@H](C)C(=O)N[C@@H](CCC(N)=O)C(=O)N[C@@H](CC(=O)O)C(=O)N[C@@H](Cc1ccccc1)C(=O)N[C@H](C(=O)N[C@@H](CCC(N)=O)C(=O)N[C@@H](Cc1c[nH]c2ccccc12)C(=O)N[C@@H](CC(C)C)C(=O)N[C@@H](CC(C)C)C(=O)N[C@@H](CC(=O)O)C(=O)NCC(=O)NCC(=O)N1CCC[C@H]1C(=O)N[C@@H](CO)C(=O)N[C@@H](CO)C(=O)NCC(=O)N[C@@H](C)C(=O)N1CCC[C@H]1C(=O)N1CCC[C@H]1C(=O)N1CCC[C@H]1C(=O)N[C@@H](CO)C(N)=O)C(C)C)C(=O)O [SEQ ID NO: 160] |  |  |  | 0.007 | 0.024 |  | EC50 (GIP receptor; Table 12, Example 19, read-out: EC50 (cAMP, nmole) GIPR): 0.015 nM
4 | CCCCCCCCCCCCCCCC(=O)N[C@@H](CCC(=O)NCCCC[C@H](NC(=O)CC[C@H](NC(=O)CCCCCCCCCCCCCCC)C(=O)O)C(=O)NCCCC[C@H](NC(=O)[C@H](CO)NC(=O)[C@@H]1CCCN1C(=O)[C@@H]1CCCN1C(=O)[C@@H]1CCCN1C(=O)[C@H](C)NC(=O)CNC(=O)[C@H](CO)NC(=O)[C@H](CO)NC(=O)[C@@H]1CCCN1C(=O)CNC(=O)CNC(=O)[C@H](CC(=O)O)NC(=O)[C@H](CC(C)C)NC(=O)[C@H](CC(C)C)NC(=O)[C@H](Cc1c[nH]c2ccccc12)NC(=O)[C@H](CCC(N)=O)NC(=O)[C@@H](NC(=O)[C@H](Cc1ccccc1)NC(=O)[C@H](CC(=O)O)NC(=O)[C@H](CCC(N)=O)NC(=O)[C@H](C)NC(=O)[C@H](C)NC(=O)[C@H](CCCNC(=N)N)NC(=O)[C@H](CCC(=O)O)NC(=O)[C@H](CC(=O)O)NC(=O)[C@H](CC(C)C)NC(=O)[C@H](Cc1ccc(O)cc1)NC(=O)[C@H](CCCCN)NC(=O)[C@H](CO)NC(=O)[C@H](Cc1ccc(O)cc1)NC(=O)[C@H](CC(=O)O)NC(=O)[C@H](CO)NC(=O)[C@@H](NC(=O)[C@H](Cc1ccccc1)NC(=O)[C@@H](NC(=O)CNC(=O)[C@H](CCC(N)=O)NC(=O)C(C)(C)NC(=O)[C@@H](N)Cc1c[nH]cn1)[C@@H](C)O)[C@@H](C)O)C(C)C)C(N)=O)C(=O)O [SEQ ID NO: 161] (H-H[Aib]QGTFTSDYSKYLDERAAQDFVQWLLDGGPSSGAPPPSK(X5)-NH2) |  |  |  | 0.007 | 0.011 | 0.01 | 
5 | CCCCCCCCCCCCCCCC(=O)N[C@@H](CCC(=O)NCCCCCCCCCCCC(=O)NCCCC[C@H](NC(=O)[C@H](CC(=O)O)NC(=O)[C@H](CO)NC(=O)[C@@H](NC(=O)[C@H](Cc1ccccc1)NC(=O)[C@@H](NC(=O)CNC(=O)[C@H](CCC(N)=O)NC(=O)C(C)(C)NC(=O)[C@@H](N)Cc1c[nH]cn1)[C@@H](C)O)[C@@H](C)O)C(=O)N[C@@H](CO)C(=O)N[C@@H](CCCCN)C(=O)N[C@@H](Cc1ccc(O)cc1)C(=O)N[C@@H](CC(C)C)C(=O)N[C@@H](CC(=O)O)C(=O)N[C@@H](CCC(=O)O)C(=O)N[C@@H](CCCNC(=N)N)C(=O)N[C@@H](C)C(=O)N[C@@H](C)C(=O)N[C@@H](CCC(N)=O)C(=O)N[C@@H](CC(=O)O)C(=O)N[C@@H](Cc1ccccc1)C(=O)N[C@H](C(=O)N[C@@H](CCC(N)=O)C(=O)N[C@@H](Cc1c[nH]c2ccccc12)C(=O)N[C@@H](CC(C)C)C(=O)N[C@@H](CC(C)C)C(=O)N[C@@H](CC(=O)O)C(=O)NCC(=O)NCC(=O)N1CCC[C@H]1C(=O)N[C@@H](CO)C(=O)N[C@@H](CO)C(=O)NCC(=O)N[C@@H](C)C(=O)N1CCC[C@H]1C(=O)N1CCC[C@H]1C(=O)N1CCC[C@H]1C(=O)N[C@@H](CO)C(N)=O)C(C)C)C(=O)O [SEQ ID NO: 162] |  |  |  |  |  | 0.033 | EC50 (GLP-1 receptor; EC50 (cAMP, nmole) GLPR, Table 12, Example 19): 0.003 nM; EC50 (glucagon receptor): 0.008 nM
